# Results reported in paper PMC3064516 (Nature structural & molecular biology, 2011).
# Biological target: Autotaxin (ATX, ENPP2) (Homo sapiens, UniProt Q13822)
# Assay: nucleotide phosphodiesterase assay, Km
# Assay type: biochemical
compound,measurement,value
"Cc1cn([C@H]2C[C@H](O)[C@@H](COP(=O)(O)Oc3ccc([N+](=O)[O-])cc3)O2)c(=O)[nH]c1=O [pNP-TMP, p-nitrophenyl thymidine 5′-monophosphate]",Km,1930 ± 200 µM
